# Results as given in patent publication EP3828160A1, “TREPROSTINIL DERIVATIVE COMPOUNDS AND METHODS OF USING SAME” (Corsair Pharma, Inc., priority 2014, dated 2016).
# Key:
# Assay type in all cases: in vitro ADME
# [1] = Human liver microsomal stability assay (Test 1); conditions: liver microsomes, 0.5 uM test compound, 37°C, up to 45 minutes, 0.5 mg microsomal protein, NADPH generating system, pH 7.4, read-out: Test 1 T1/2
# Experimental: (§1) Four assays on compounds were carried out by the following methods with the results shown in Table I. • (Test 1) Human liver microsomal stability assay was conducted by incubating 0.5 uM test compounds at 37°C for up to 45 minutes in 50 mM of potassium phosphate buffer (pH 7.4) containing 0.5 mg of microsomal protein and 50 µL of NADPH generating system (7.8 mg of glucose 6-phosphate, 1.7 mg of NADPH and 6 U of glucose 6-phosphate dehydrogenase per mL in 2% w/v of sodium bicarbonate). At 0, 5, 15, 30 and 45 min., an aliquot was taken, quenched with internal standard containing stop solution. No co-factor controls at 45 minutes were also prepared. After incubation, the samples were analyzed by LC-MS/MS. Peak area ratios of analyte to internal standard were used to calculate the intrinsic clearance. The intrinsic clearance (CLint) was determined from the first order elimination constant by non-linear regression. Formation of the active drug Compound A over the time course was also monitored by LC-MS/MS analysis. • (Test 2) Human plasma stability assay was conducted by incubating 0.5 uM test compounds at 37°C for up to 120 minutes in heparinated human plasma. At 0, 5, 15, 30, 60 and 120 […] min., an aliquot was taken, quenched with internal standard containing stop solution. After incubation, the samples were analyzed by LC-MS/MS. Peak area ratios of analyte to internal standard were used to calculate the half-life. Formation of the active drug Compound A over the time course was also monitored by LC-MS/MS analysis. • (Test 3) Human skin homogenate stability assay was conducted in a similar way as the human liver microsomal stability assay, by incubating 0.5 uM test compounds at 37°C for up to 45 minutes in 50 mM of potassium phosphate buffer (pH 7.4) containing 0.5 mg of human skin homogenate protein and 50 µL of NADPH generating system (7.8 mg of glucose 6-phosphate, 1.7 mg of NADPH and 6 U of glucose 6-phosphate dehydrogenase per mL in 2% w/v of sodium bicarbonate). At 0, 5, 15, 30 and 45 min., an aliquot was taken, quenched with internal standard containing stop solution. No co-factor controls at 45 minutes were also prepared. After incubation, the samples were analyzed by LC-MS/MS. Peak area ratios of analyte to internal standard were used to calculate the intrinsic clearance. The intrinsic clearance (CLint) was determined from the first order elimination constant by non-linear regression. Formation of the active drug Compound A over the time course was also monitored by LC-MS/MS analysis. • (Test 4) Human hepatocyte stability assay was conducted by incubating 0.5 uM test compound at 37°C for up to 240 minutes. Cryopreserved human hepatocytes were obtained from Celsis IVT (Baltimore, Maryland). Cells were thawed according to vendor's instructions and were suspended in William's Medium E to 0.5 million cells/mL. Test compounds were spiked into the cell suspension to initiate the reactions. At 0, 10,30,60, 120 and 240 min., an aliquot was taken, quenched with internal standard containing stop solution. After incubation, the samples were analyzed by LC-MS/MS. Peak area ratios of analyte to internal standard were used to calculate the intrinsic clearance. The intrinsic clearance (CLint) was determined from the first order elimination constant by non-linear regression. Formation of the active drug Compound A over the time course was also monitored by LC-MS/MS analysis.
# [2] = Human plasma stability assay (Test 2); conditions: 0.5 uM test compound, 37°C, up to 120 minutes, heparinated human plasma, read-out: Test 2 T1/2
# Experimental: as §1
# [3] = Human skin homogenate stability assay (Test 3); conditions: 0.5 uM test compound, 37°C, up to 45 minutes, 0.5 mg human skin homogenate protein, NADPH generating system, pH 7.4, read-out: Test 3 T1/2
# Experimental: as §1
half-life at 0.5 uM [1] [min],half-life at 0.5 uM [2] [min],half-life at 0.5 uM [3] [min],SMILES
< 15,< 15,,"CCCCCC(O)CCC1C(O)CC2Cc3c(cccc3OCC(=O)OCC3CC3)CC21 (stereo not shown) [Compound 1, [2-Hydroxy-1-(3-hydroxy-octyl)-2,3,3a,4,9,9a-hexahydro-1H-cyclopenta[b]naphthalen-5-yloxy]-acetic acid cyclopropylmethyl ester]"
< 15,< 15,,"CCCCCC(O)CCC1C(O)CC2Cc3c(cccc3OCC(=O)OCCCF)CC21 (stereo not shown) [Compound 4, [2-Hydroxy-1-(3-hydroxy-octyl)-2,3,3a,4,9,9a-hexahydro-1H-cyclopenta[b]naphthalen-5-yloxy]-acetic acid 3-fluoro-propyl ester]"
< 15,< 15,,"CCCCCC(O)CCC1C(O)CC2Cc3c(cccc3OCC(=O)OC3CCOC3)CC21 (stereo not shown) [Compound 5, [2-Hydroxy-1-(3-hydroxy-octyl)-2,3,3a,4,9,9a-hexahydro-1H-cyclopenta[b]naphthalen-5-yloxy]-acetic acid tetrahydro-furan-3-yl ester]"
31 to 60,,,"CCCCCC(O)CCC1C(O)CC2Cc3c(cccc3OCC(=O)NCCN)CC21 (stereo not shown) [Compound 8, N-(2-Amino-ethyl)-2-[2-hydroxy-1-(3-hydroxy-octyl)-2,3,3a,4,9,9a-hexahydro-1H-cyclopenta[b]naphthalen-5-yloxy]-acetamide]"
< 15,,,"CCCCCC(O)CCC1C(O)CC2Cc3c(cccc3OCC(=O)OCCO)CC21 (stereo not shown) [Compound 9, [2-Hydroxy-1-(3-hydroxy-octyl)-2,3,3a,4,9,9a-hexahydro-1H-cyclopenta[b]naphthalen-5-yloxy]-acetic acid 2-hydroxy-ethyl ester]"
< 15,,,"CCCCCC(O)CCC1C(O)CC2Cc3c(cccc3OCC(=O)OCCOC)CC21 (stereo not shown) [Compound 10, [2-Hydroxy-1-(3-hydroxy-octyl)-2,3,3a,4,9,9a-hexahydro-1H-cyclopenta[b]naphthalen-5-yloxy]-acetic acid 2-methoxy-ethyl ester]"
< 15,> 60,,"CCCCCC(O)CCC1C(O)CC2Cc3c(cccc3OCC(=O)NCCCO)CC21 (stereo not shown) [Compound 11, 2-[2-Hydroxy-1-(3-hydroxy-octyl)-2,3,3a,4,9,9a-hexahydro-1H-cyclopenta[b]naphthalen-5-yloxy]-N-(3-hydroxy-propyl)-acetamide]"
< 15,> 60,,"CCCCCC(O)CCC1C(O)CC2Cc3c(cccc3OCC(=O)NCC(=O)OC)CC21 (stereo not shown) [Compound 12, {2-[2-Hydroxy-1-(3-hydroxy-octyl)-2,3,3a,4,9,9a-hexahydro-1H-cyclopenta[b]naphthalen-5-yloxy]-acetylamino}-acetic acid methyl ester]"
< 15,< 15,< 15,"CCCCCC(O)CCC1C(O)CC2Cc3c(cccc3OCC(=O)OC)CC21 (stereo not shown) [Compound 15, [2-Hydroxy-1-(3-hydroxy-octyl)-2,3,3a,4,9,9a-hexahydro-1H-cyclopenta[b]naphthalen-5-yloxy]-acetic acid methyl ester]"
< 15,15 to 30,15 to 30,"CCCCCC(O)CCC1C(O)CC2Cc3c(cccc3OCC(=O)OCC(C)(C)C)CC21 (stereo not shown) [Compound 16, [2-Hydroxy-1-(3-hydroxy-octyl)-2,3,3a,4,9,9a-hexahydro-1H-cyclopenta[b]naphthalen-5-yloxy]-acetic acid 2,2-dimethyl-propyl ester]"
< 15,31 to 60,15 to 30,"CCCCCC(O)CCC1C(O)CC2Cc3c(cccc3OCC(=O)OC(C)C(C)C)CC21 (stereo not shown) [Compound 17, [2-Hydroxy-1-(3-hydroxy-octyl)-2,3,3a,4,9,9a-hexahydro-1H-cyclopenta[b]naphthalen-5-yloxy]-acetic acid 1,2-dimethyl-propyl ester]"
< 15,> 60,> 60,"CCCCCC(O)CCC1C(O)CC2Cc3c(cccc3OCC(=O)OC(C)C(C)(C)C)CC21 (stereo not shown) [Compound 18, [2-Hydroxy-1-(3-hydroxy-octyl)-2,3,3a,4,9,9a-hexahydro-1H-cyclopenta[b]naphthalen-5-yloxy]-acetic acid 1,2,2-trimethyl-propyl ester]"
< 15,31 to 60,15 to 30,"CCCCCC(O)CCC1C(O)CC2Cc3c(cccc3OCC(=O)OC3CC4CCC3C4)CC21 (stereo not shown) [Compound 19, [2-Hydroxy-1-(3-hydroxy-octyl)-2,3,3a,4,9,9a-hexahydro-1H-cyclopenta[b]naphthalen-5-yloxy]-acetic acid bicyclo[2.2.1]hept-2-yl ester]"
< 15,31 to 60,< 15,"CCCCCC(O)CCC1C(O)CC2Cc3c(cccc3OCC(=O)OC(C)C)CC21 (stereo not shown) [Compound 20, [2-Hydroxy-1-(3-hydroxy-octyl)-2,3,3a,4,9,9a-hexahydro-1H-cyclopenta[b]naphthalen-5-yloxy]-acetic acid isopropyl ester]"
< 15,> 60,,"CCCCCC(O)CCC1C(O)CC2Cc3c(cccc3OCC(=O)NCC(F)(F)C(F)(F)F)CC21 (stereo not shown) [Compound 21, 2-[2-Hydroxy-1-(3-hydroxy-octyl)-2,3,3a,4,9,9a-hexahydro-1H-cyclopenta[b]naphthalen-5-yloxy]-N-(2,2,3,3,3-pentafluoro-propyl)-acetamide]"
< 15,> 60,,"CCCCCC(O)CCC1C(OC(=O)CC(C)C)CC2Cc3c(cccc3OCC(=O)OC)CC21 (stereo not shown) [Compound 23, 3-Methyl-butyric acid 1-(3-hydroxy-octyl)-5-methoxycarbonylmethoxy-2,3,3a,4,9,9a-hexahydro-1H-cyclopenta[b]naphthalen-2-yl ester]"
< 15,> 60,,"CCCCCC(O)CCC1C(OC(=O)C2CC2)CC2Cc3c(cccc3OCC(=O)OC)CC21 (stereo not shown) [Compound 24, Cyclopropanecarboxylic acid 1-(3-hydroxy-octyl)-5-methoxycarbonylmethoxy-2,3,3a,4,9,9a-hexahydro-1H-cyclopenta[b]naphthalen-2-yl ester]"
< 15,> 60,,"CCCCCC(O)CCC1C(OC(=O)CCC(=O)OCC)CC2Cc3c(cccc3OCC(=O)OC)CC21 (stereo not shown) [Compound 27, Succinic acid ethyl ester 1-(3-hydroxy-octyl)-5-methoxycarbonylmethoxy-2,3,3a,4,9,9a-hexahydro-1H-cyclopenta[b]naphthalen-2-yl ester]"
< 15,15 to 30,,"CCCCCC(O)CCC1C(O)CC2Cc3c(cccc3OCC(=O)OC(C)(C)C)CC21 (stereo not shown) [Compound 28, [2-Hydroxy-1-(3-hydroxy-octyl)-2,3,3a,4,9,9a-hexahydro-1H-cyclopenta[b]naphthalen-5-yloxy]-acetic acid tert-butyl ester]"

SMILES,half-life at 0.5 uM [1] [min],half-life at 0.5 uM [2] [min],half-life at 0.5 uM [3] [min]
"CCCCCC(O)CCC1C(O)CC2Cc3c(cccc3OCC(=O)OC(C)C(=O)OC)CC21 (stereo not shown) [Compound 6, 2-{2-[2-Hydroxy-1-(3-hydroxy-octyl)-2,3,3a,4,9,9a-hexahydro-1H-cyclopenta[b]naphthalen-5-yloxy]-acetoxy}-propionic acid methyl ester]",< 15,< 15,
